Holding throughout (assay): inhibition of tumour cell growth, NCI panel, 48 h
The test system of test [1] is IGROV1 ovarian.
Test [2] has as its system NCI-H226 lung.
The test system of test [3] is SK-MEL-5 melanoma.
The test system of test [4] is OVCAR-3 ovarian.
For test [5], the system named is HOP-62 NSCLC.
For test [6], the system named is U251 CNS.
Test [7] relates to SF-268 CNS.
Test [8] relates to MDA-MB-231 breast.
Test [9] relates to T-47D breast.

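Assay format: 96-well plates, 48-hour exposure. The concentration for 50% growth inhibition is given as GI50. The concentration for full growth arrest is given as TGI.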

As for `OCC(O)CC[CH2][Sn]([Br])([c]1ccccc1)[c]1ccccc1` (stereo not given), the GI50 in test [1], in test [2], in test [3], in test [4], in [5] and in test [6] was above 100 µM throughout. In addition, the TGI in [1], in [2], in test [3], in test [4], in test [5] and in test [6] was above 100 µM each time.
Consider `O=C(O)CNS(=O)(=O)c1ccc(NCc2ccccc2)cc1`, for which the TGI in [1], in test [2], in [7], in [3], in test [5] and in test [6] was above 100 µM in each case.
As for `O=C(/N=N/C(=O)OCc1ccccc1)OCc1ccccc1`, the TGI in test [1], in [7], in [3], in test [4], in test [5] and in test [6] was above 100 µM in each case.
Take `[Cl-].[Dy+3].[O-]/N=C(\c1ccccc1)c1ccccn1.[O-]/N=C(\c1ccccc1)c1ccccn1.[O-]/N=C(\c1ccccc1)c1ccccn1`: the GI50 in [1] was 33.1 µM; in test [2], 17.3 µM; in [7], 30.2 µM; in [3], 23.7 µM; in test [4], 24.4 µM; in test [5], 24.7 µM. The GI50 in test [6] was 47.5 µM. In addition, the TGI in test [1] is above 100 µM; in test [2] it was 58.4 µM; in test [7], 98.9 µM; in [3], 61.7 µM; in test [4], 92.6 µM; in [5], above 100 µM. Besides, the TGI in test [6] was above 100 µM.
As for `CC(=O)CNC(=O)OC(C)(C)C`, the TGI in [1], in test [2], in test [7], in test [3], in [4] and in test [5] was above 100 µM in each case. Also, in test [6], the TGI was above 100 µM.
`CC(C)(CC(=O)Nc1ccccc1)C(=O)O`: the TGI in test [1], in test [2], in [8], in [3], in test [9] and in test [4] was above 100 µM each time. The TGI in [5] and in test [6] was above 100 µM throughout.
On to `CCC[CH2][Sn]1([CH2]CCC)[O]Cc2nc(C)ccc2[O]1`, for which the GI50 in test [1] is 14.9 µM; in test [2], 14 µM; in [3] it was 13 µM; in [4], 5.05 µM; in test [5], 10.1 µM; in test [6], 4.73 µM. For the same molecule, the TGI came out at 28.8 µM in test [1]; 27.1 µM in test [2]; 25.9 µM in [3]; 17 µM in [4]; 22.5 µM in [5]; 16.7 µM in test [6].
As for `CC(C)c1nc(CN(C)C(=O)N[C@H](C(=O)N[C@@H](Cc2ccccc2)C[C@H](O)[C@H](Cc2ccccc2)NC(=O)OCc2cncs2)C(C)C)cs1`, the GI50 in [1] is 36.4 µM; in test [2], 18.8 µM; in [8] it was 18 µM; in test [7] it was 20.3 µM; in test [3] it was 17.1 µM; in [9] it was 21.7 µM. Also, the GI50 in test [4] was 21.5 µM; in test [5], 19.6 µM; in test [6], 24.3 µM. Also, the TGI in test [1] was above 100 µM; in [2] it was 39.4 µM; in test [8] it was 35.1 µM; in [7] it was 66.7 µM; in test [3], 33.5 µM; in test [9], 73 µM. Further, the values for the TGI in test [4], in test [5] and in test [6] were above 56.5 µM, 38.2 µM and 71.2 µM, respectively.
With `NC(=O)C(=O)N/N=C(\CC1(O)C(=O)Nc2ccccc21)c1ccc2ccccc2c1` (stereo not given), the TGI in test [1] was above 100 µM; in test [2] it was above 100 µM; in test [7], above 100 µM; in test [3], above 100 µM; in [4], 67.3 µM; in test [5], above 100 µM. For the same molecule, in test [6], the TGI is 76.4 µM.
For `O=c1/c(=C/c2ccco2)sc2nc3ccccc3n12`, the GI50 in [1], in test [2], in test [3] and in [4] was above 100 µM each time. The TGI is above 100 µM in test [1]; above 100 µM in test [2]; above 10 µM in test [7]; above 100 µM in test [3]; above 100 µM in [4]; above 100 µM in test [5]. This molecule had a TGI in test [6] above 10 µM.
As for `CCC[CH2][Sn]([CH2]CCC)([O]C(=O)c1cccnc1SC)[O]C(=O)c1cccnc1SC`, the GI50 in test [1] is 1.38 µM; in test [2] it was 0.883 µM; in test [7], 0.65 µM; in test [3] it was 1.27 µM; in test [4], 1.33 µM; in test [5], 2.43 µM. For the same molecule, in test [6], the GI50 is 0.596 µM. The TGI in test [1] came to 2.72 µM; in test [2], 2.18 µM; in [7], 2.01 µM; in [3] it was 2.56 µM; in test [4] it was 2.63 µM; in [5], 4.22 µM. The TGI in test [6] came out at 1.84 µM.
`COc1ccc(/C=C/CN(C)CCc2ccccc2)cc1OC`: the TGI in test [1], in [2], in [7], in test [3], in [4] and in [6] was above 100 µM throughout.
As to `O=C1C2c3[nH]c4ccccc4c3C3CCCCCCC3C2C(=O)N1c1ccccc1` (stereo not given), the TGI in test [7] is above 100 µM; in [3], above 100 µM; in [4], 17.2 µM; in [6], 14.9 µM.

The values are drawn from PubChem BioAssay (NCI).
